Measurements taken from patent publication US20070161643A1, “Pyridin-2-one compounds useful as inhibitors of thrombin” (priority 2004, published 2007).
pIC50: −log10 of the molar value.

Molecular target: T1, Human α-thrombin (Homo sapiens, UniProt P00734)
T1 construct: 12 μL of α-thrombin solution (Human α-thrombin, Sigma Chemical Co. or Hematologic Technologies); purchased Sigma Chemical Co. or Hematologic Technologies
Assay: Test B: Determination of thrombin inhibition with a chromogenic, robotic assay
Type: biochemical
Experimental: The thrombin inhibitor potency is measured with a chromogenic substrate method, in a Plato 3300 robotic microplate processor (Rosys AG, CH-8634 Hombrechtikon, Switzerland), using 96-well, half volume microtitre plates (Costar, Cambridge, Mass., USA; Cat No 3690). Stock solutions of test substance in DMSO (72 μL), 0.1-1 mmol/L, are diluted serially 1:3 (24+48 μL) with DMSO to obtain ten different concentrations, which are analysed as samples in the assay. 2 μL of test sample is diluted with 124 μL assay buffer, 12 μL of chromogenic substrate solution (S-2366, Chromogenix, Mölndal, Sweden) in assay buffer and finally 12 μL of α-thrombin solution (Human α-thrombin, Sigma Chemical Co. or Hematologic Technologies) in assay buffer, are added, and the samples mixed. The final assay concentrations are: test substance 0.00068-133 μmol/L, S-2366 0.30 mmol/L, α-thrombin 0.020 NIHU/mL. The linear absorbance increment during 40 minutes incubation at 37° C. is used for calculation of percentage inhibition for the test samples, as compared to blanks without inhibitor.

Cc1ccc(C)c(CCNn2ccc(C)c(CC(=O)NCc3ccc(C(=N)N)cc3)c2=O)c1 [2(xi), N-(4-Carbamimidoylbenzyl)-2-{1-[2-(2,5-dimethylphenyl)ethylamino]-4-methyl-2-oxo-1,2-dihydropyridin-3-yl}acetamide]
pIC50: 7.04
